Columns and labels:
[1] = Prodrug conversion in simulated intestinal fluid assessed as acetominophen formation at pH 6.8 after 210 mins; format: ADME; settings: simulated gi fluid, pH 6.8, 3.5 h
[2] = Prodrug conversion in PBS buffer assessed as acetominophen formation at pH 7.4 after 210 mins; format: physicochemical; settings: pH 7.4, 3.5 h
[3] = Prodrug conversion in simulated gastric fluid assessed as acetominophen formation at pH 1.2 after 210 mins; format: ADME, Stomach; settings: simulated gi fluid, pH 1.2, 3.5 h

Measured: Drug metabolism

CC(=O)Nc1ccc(OC(=O)Cn2cc[n+](C)c2)cc1.[Cl-]
Active: all assays above
